# Key:
# Predicted human PK = settings: allometry from rat, dog, monkey PK
# [1] = target: human ether‐à‐go‐go (hERG) channel (Homo sapiens, UniProt Q12809); experiment: hERG channel inhibition; type: biochemical
# [2] = test system: protein O‐GlcNAc modification in human embryonic kidney cells; experiment: Cellular protein O-GlcNAc increase; type: cell-based; settings: read-out: Protein O‐GlcNAc (cellular) Relative EC50
# [3] = Clinical pharmacokinetics in Phase 1 studies; type: in vivo, human
# [4] = MDCK passive permeability; type: in vitro ADME, canine; settings: dog
# Solubility = type: physicochemical; settings: phosphate buffer, pH 7.5, aqueous buffer
# [5] = Phase 1 clinical safety and tolerability; type: in vivo, human
# [6] = Phase 2 study PROSPECT-ALZ in early symptomatic AD; type: in vivo, human; settings: Prospect‐ALZ Phase 2 study; full results to be published separately
# [7] = Plasma protein binding, mice; type: in vitro ADME; settings: mouse
# [8] = SAD study, single oral doses 0.15 to 16 mg
# human ether‐à‐go‐go (hERG) channel, sequence (Q12809 whole entry): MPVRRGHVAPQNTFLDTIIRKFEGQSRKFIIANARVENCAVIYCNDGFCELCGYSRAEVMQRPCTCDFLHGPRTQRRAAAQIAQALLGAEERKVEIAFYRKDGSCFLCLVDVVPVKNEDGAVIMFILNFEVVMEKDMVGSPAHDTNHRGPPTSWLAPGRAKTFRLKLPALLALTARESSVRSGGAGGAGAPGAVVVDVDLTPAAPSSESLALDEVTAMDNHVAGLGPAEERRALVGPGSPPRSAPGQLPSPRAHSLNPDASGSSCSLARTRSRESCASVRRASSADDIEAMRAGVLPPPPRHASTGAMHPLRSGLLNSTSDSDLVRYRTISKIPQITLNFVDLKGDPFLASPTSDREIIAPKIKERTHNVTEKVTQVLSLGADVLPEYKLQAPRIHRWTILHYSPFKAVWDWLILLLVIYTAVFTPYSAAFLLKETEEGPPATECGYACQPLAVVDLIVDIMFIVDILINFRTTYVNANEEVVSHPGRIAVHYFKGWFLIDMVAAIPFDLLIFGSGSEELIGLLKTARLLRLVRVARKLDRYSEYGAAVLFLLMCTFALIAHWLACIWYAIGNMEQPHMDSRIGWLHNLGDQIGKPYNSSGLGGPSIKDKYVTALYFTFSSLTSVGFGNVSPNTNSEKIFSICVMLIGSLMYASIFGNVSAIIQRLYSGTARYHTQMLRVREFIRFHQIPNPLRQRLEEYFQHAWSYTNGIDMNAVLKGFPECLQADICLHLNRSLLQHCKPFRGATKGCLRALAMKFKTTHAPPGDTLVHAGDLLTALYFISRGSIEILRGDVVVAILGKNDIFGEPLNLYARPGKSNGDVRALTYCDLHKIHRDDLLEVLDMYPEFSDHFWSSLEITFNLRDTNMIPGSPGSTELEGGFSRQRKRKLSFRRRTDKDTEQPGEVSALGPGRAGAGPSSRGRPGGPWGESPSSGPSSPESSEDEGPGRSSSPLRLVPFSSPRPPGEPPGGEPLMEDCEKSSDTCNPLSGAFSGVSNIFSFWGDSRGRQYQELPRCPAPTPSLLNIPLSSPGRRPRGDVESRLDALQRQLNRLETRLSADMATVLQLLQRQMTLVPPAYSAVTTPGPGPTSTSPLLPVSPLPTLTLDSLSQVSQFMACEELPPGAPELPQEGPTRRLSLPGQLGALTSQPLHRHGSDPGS
smiles,measurement,setting,value
CC(=O)Nc1nc(F)c(CN2CC[C@H](OCc3noc(C)n3)C[C@@H]2C)s1 [ceperognastat],predicted human apparent clearance (CL/F),Predicted human PK,12 L/h
same,predicted human apparent volume of distribution (V/F),Predicted human PK,48 L
same,IC50,[1],81 µM
same,EC50,[2],0.0219 ± 0.0073 µM
same,accumulation with QD dosing,"[3]; MAD study, 1, 3, 7 mg QD for 14 days, day 1 vs day 14",minimal accumulation
same,CL/F,[3]; [8],12 L/h
same,V/F,[3]; [8],112 L
same,Papp,[4],501 nm/s
same,solubility,Solubility,1.36 mg/mL
same,participants reporting at least one TEAE,"[5]; MD‐PET study, 1 mg QD 14 days",Four out of four
same,participants reporting TEAEs,"[5]; SAD study, 13 of 23 ceperognastat-treated participants",56.5%
same,participants reporting at least one TEAE,"[5]; SD‐PET study, 8 of 16 participants, single oral dose",50%
same,serious adverse events (SAEs),[5]; all Phase 1 clinical studies,no serious adverse events
same,clinical benefit in early AD,[6],did not show evidence of clinical benefit
same,fraction unbound,[7],0.684

# Reference: article PMC11694536 (Alzheimer's & Dementia : Translational Research & Clinical …, 2024)
